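Cells were grown in 96-well plates and exposed to each compound for 48 hours at five concentrations; endpoints were interpolated linearly between bracketing concentrations, or set to the highest concentration if not reached. Here, GI50 denotes the concentration required for 50% inhibition of growth.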 Activity calls are given as the source filed them. Cut-off read from the data, not from the text of the source: active = GI50 up to about 1.1 µM and inactive = higher.
Assays:
Test in all cases: DTP human tumour cell line panel, 48 h
Malme-3M = system: Malme-3M
NCI-H522 = system: NCI-H522
MDA-MB-231 = system: MDA-MB-231
SK-MEL-28 = system: SK-MEL-28
NCI/ADR-RES = system: NCI/ADR-RES
HT-29 = system: HT-29
MCF7 = system: MCF7
SK-OV-3 = system: SK-OV-3
SK-MEL-2 = system: SK-MEL-2
HCC 2998 = system: HCC 2998
SN12C = system: SN12C
MOLT-4 = system: MOLT-4
UO-31 = system: UO-31
SR = system: SR
MDA-MB-435 = system: MDA-MB-435
A498 = system: A498
SNB-75 = system: SNB-75
COLO 205 = system: COLO 205
SNB-19 = system: SNB-19
U-251 = system: U-251

Compound | GI50 (Malme-3M) | GI50 (NCI-H522) | GI50 (MDA-MB-231) | GI50 (SK-MEL-28) | GI50 (NCI/ADR-RES) | GI50 (HT-29) | GI50 (MCF7) | GI50 (SK-OV-3) | GI50 (SK-MEL-2) | GI50 (HCC 2998) | GI50 (SN12C) | GI50 (MOLT-4) | GI50 (UO-31) | GI50 (SR) | GI50 (MDA-MB-435) | GI50 (A498) | GI50 (SNB-75) | GI50 (COLO 205) | GI50 (SNB-19) | GI50 (U-251)
CCN(CC)CCNc1ccc2nnn3c4ccc(O)cc4c(=O)c1c23 | 4.93 µM (inactive) | 6.82 µM (inactive) | 0.0361 µM (active) | 11.4 µM (inactive) | 1.47 µM (inactive) | 3.33 µM (inactive) | 2.7 µM (inactive) | 8.22 µM (inactive) | 11.3 µM (inactive) | 1.52 µM (inactive) | 1.64 µM (inactive) | 0.0407 µM (active) | 0.608 µM (active) | 0.06 µM (active) | 3.56 µM (inactive) | 8.83 µM (inactive) | 2.07 µM (inactive) | 1.84 µM (inactive) | 5.52 µM (inactive) | 2.86 µM (inactive)
O=C(O)C[C@@H]1[C@@H](O)[C@@H](O)CN2C(=O)c3ccccc3[C@H]12 | > 100 µM (inactive) | > 100 µM (inactive) | > 100 µM (inactive) | > 100 µM (inactive) | > 100 µM (inactive) | > 100 µM (inactive) | > 100 µM (inactive) | > 100 µM (inactive) | > 100 µM (inactive) | > 100 µM (inactive) | > 100 µM (inactive) | > 100 µM (inactive) | > 100 µM (inactive) | > 100 µM (inactive) | > 100 µM (inactive) | > 100 µM (inactive) | > 100 µM (inactive) | > 100 µM (inactive) | > 100 µM (inactive) | > 100 µM (inactive)
CSc1c(C(=O)Nc2ccc(Cl)cc2)c(N)n(N)c(=O)c1C#N | > 100 µM (inactive) | 25.7 µM (inactive) | > 100 µM (inactive) | > 100 µM (inactive) | 58.1 µM (inactive) | > 100 µM (inactive) | 75.3 µM (inactive) | > 100 µM (inactive) | > 100 µM (inactive) | 54.1 µM (inactive) | > 100 µM (inactive) | 76.9 µM (inactive) | 31.6 µM (inactive) | > 100 µM (inactive) | > 100 µM (inactive) | 36 µM (inactive) | > 100 µM (inactive) | > 100 µM (inactive) | > 100 µM (inactive) | > 100 µM (inactive)

Reference: ChEMBL document CHEMBL1201862, “PubChem BioAssay data set” (2004)
